Data taken from patent publication US20040086904A1, “Screening assay for cotranslational translocation interfering compounds” (priority 2001, published 2004).

Assays:
[1] = target: T1, VCAM-1 (Homo sapiens, UniProt P19320)
T1 sequence (P19320 25-739): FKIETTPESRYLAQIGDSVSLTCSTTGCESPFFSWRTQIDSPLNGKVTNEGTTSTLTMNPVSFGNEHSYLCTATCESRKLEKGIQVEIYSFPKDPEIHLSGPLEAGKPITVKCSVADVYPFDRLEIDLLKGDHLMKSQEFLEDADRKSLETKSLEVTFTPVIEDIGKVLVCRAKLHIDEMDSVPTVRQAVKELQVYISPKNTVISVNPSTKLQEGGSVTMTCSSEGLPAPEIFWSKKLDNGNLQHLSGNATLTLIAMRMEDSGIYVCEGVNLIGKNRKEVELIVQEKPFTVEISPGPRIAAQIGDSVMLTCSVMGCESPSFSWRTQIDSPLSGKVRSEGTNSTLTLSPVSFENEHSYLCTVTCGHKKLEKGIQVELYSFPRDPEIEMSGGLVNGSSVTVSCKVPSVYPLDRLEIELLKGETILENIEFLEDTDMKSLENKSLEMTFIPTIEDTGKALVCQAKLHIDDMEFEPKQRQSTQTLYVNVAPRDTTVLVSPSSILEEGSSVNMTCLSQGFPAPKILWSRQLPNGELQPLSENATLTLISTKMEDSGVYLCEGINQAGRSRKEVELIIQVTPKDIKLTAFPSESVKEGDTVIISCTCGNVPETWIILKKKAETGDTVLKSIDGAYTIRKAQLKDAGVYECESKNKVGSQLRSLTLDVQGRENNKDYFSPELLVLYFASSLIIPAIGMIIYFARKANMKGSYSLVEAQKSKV
Protocol: Cell-free translations are carried out in the coupled TNT reticulocyte lysate system (Promega) using bacteriophage T7 polymerase according to the suppliers recommendations in a final volume of 25 μl and in the presence of [^35S]-methionine (Redivue, 10 mCi/ml, Amersham). To study cotranslational translocation across the ER membrane dog pancreatic microsomes (Promega) are present during translation reactions at concentrations between 1 to 2.5 μl per 25 μl reaction mixture. After translation/translocation, 2.5 μl of the reaction mixture are denatured in SDS loading buffer (12.5 mM Tris-HCl, pH 6.8, 80 μM EDTA, 26 mM DTT, 1% SDS, 100 g/ml bromphenol blue, 0.01% NaN3) for 5 minutes at 95° and subjected to SDS-PAGE (4-20% gradient or 15% Excel gels, Pharmacia). Gels are analyzed by autoradiography and quantitated using an Instant Phosphoimager (Packard). […]
To investigate the possibility that the candidate compound is interfering at this early stage of protein expression the effect of the drug on the process of cotranslational translocation in a cell-free assay system is analysed. […]

[2] = system: SEAP; assay: SP-SEAP assay, secretion of SEAP into the medium; assay type: cell-based, human; settings: transiently transfected cells, increasing concentrations
Protocol: Cell Culture and Transient Transfections HEK293 cells are maintained in Dulbeccos' modified Eagle's medium (DMEM, Gibco-BRL), supplemented with 10% heat-inactivated fetal calf serum (FCS, Bio-Whittaker) and 100 Units/ml each of penicillin (BC) and streptomycin (Gibco-BRL) at 37° in a 5% humidified CO2 incubator. HUVEC cells are cultured in endothelial cell basal medium (EBM, Clonetics Corp.) supplemented with 10% FCS, 5×10^−4 M dibutyryl cAMP (Sigma), 1 μg/ml hydrocortisone (Sigma) and 10 ng/ml human EGF (Boehringer) at 37° in a 5% humidified CO2 incubator. VCAM-1 production is stimulated by incubation with 100U/ml TNF-α for ca. 8 hours. For transient transfection, HEK293 cells are seeded into 6-well or 24-well cell culture dishes at a density of 6×10^5 cells/well or 1.5×10^5 cells/well, respectively, the day prior to transfection and grown to 50-70% confluency. […]
Human placental SEAP levels in cell supernatants are determined using either a fluorescence-based assay or an assay that measures light absorbance at 405 nm accompanying hydrolysis of pNPP according to the method described (Berger et al., 1988). […] 20 μl of 120 mM pNPP in 1x SEAP buffer prewarmed to 37° is added and the change in absorbance at 37° is plotted. […] For determination of SEAP levels by a fluorescence-based assay the Atto Phos AP Fluorescent Substrate Sysem (Promega) is used according to the manufacturer's instructions. […]

[3] = target: T2, ICAM-1 (Homo sapiens, UniProt P05362); assay: Cell-free translation/translocation assay, ICAM-1; assay type: biochemical; settings: reticulocyte lysate with dog pancreatic microsomes
T2 construct: Full length cDNAs of the adhesion molecules VCAM-1, ICAM-1 and E-Selectin are transcribed and translated; host or cells: cell-free: coupled TNT reticulocyte lysate (Promega) with dog pancreatic microsomes
Excerpt: Proteins are radioactively labelled and visualised by autoradlography.

[4] = target: T1, VCAM-1; assay: Transient expression of VCAM-1 in HEK293 cells, Western blot / immunoblot; assay type: cell-based; set-up: expressed in transfected cells; host or cells: HEK293
Protocol: The E-Selectin and ICAM-1 expression vectors pCDM8-E-selectin and pCDM8-ICAM-1 allowing transient expression in mammalian cells and cell-free translation are obtained from R&D Systems. VCAM-1 cDNA is obtained by reverse transcription of total RNA from TNF-α stimulated primary human umbilical vein endothelial cells (HUVEC) as follows. After extraction of total RNA with Trizol (GibcoBRL) according to the suppliers recommendations, reverse transcription (RT) PCR on approximately 3 μg total HUVEC RNA is performed using the Advantage High Fidelity PCR kit (CLONTECH) under standard conditions with N- and C-terminal VCAM-1-specific sense and antisense oligonucleotide primers, respectively. Primers are tailed, introducing a Kpnl restriction site 5′ of the Kozak sequence and a Xhol site 3′ of the stop codon. Placental SEAP is amplified accordingly by PCR using plasmid pBC 12/PLAP489 (Berger et al., 1988) as a template and similar tailed SEAP-specific sense and antisense oligonuclotide primers. The SEAP and VCAM-1 cDNAs are isolated and cloned into the pCR2.1 vector (TA cloning kit, Invitrogen). […] Approximately equal molar quantities of each PCR product A and B are phosphorylated and ligated. […]
Protein expression in cells is analyzed by Western blot and subsequent immunoblot analysis. […]

[5] = system: VCAMSP15+4/E-Sel; assay: Chimeric fusion construct sensitivity (cell-free translation/translocation and transfected HEK293 cells); assay type: cell-based; settings: 15 aa of the SP plus 4 aa of the adjacent mature domain of VCAM-1
Protocol: (§1) The E-Selectin and ICAM-1 expression vectors pCDM8-E-selectin and pCDM8-ICAM-1 allowing transient expression in mammalian cells and cell-free translation are obtained from R&D Systems. VCAM-1 cDNA is obtained by reverse transcription of total RNA from TNF-α stimulated primary human umbilical vein endothelial cells (HUVEC) as follows. After extraction of total RNA with Trizol (GibcoBRL) according to the suppliers recommendations, reverse transcription (RT) PCR on approximately 3 μg total HUVEC RNA is performed using the Advantage High Fidelity PCR kit (CLONTECH) under standard conditions with N- and C-terminal VCAM-1-specific sense and antisense oligonucleotide primers, respectively. Primers are tailed, introducing a Kpnl restriction site 5′ of the Kozak sequence and a Xhol site 3′ of the stop codon. Placental SEAP is amplified accordingly by PCR using plasmid pBC 12/PLAP489 (Berger et al., 1988) as a template and similar tailed SEAP-specific sense and antisense oligonuclotide primers. The SEAP and VCAM-1 cDNAs are isolated and cloned into the pCR2.1 vector (TA cloning kit, Invitrogen). All sequences are confirmed by sequencing and subsequently subcloned into the mammalian expression vector pcDNA3.1 (+) (Invitrogen) as Kpnl Xhol fragments for transient expression under control of the constitutive immediate-early CMV promoter and for cell-free translation from the bacteriophage T7 promoter. To generate SP-gene fusion constructs the recombinant PCR-ligation-PCR mutagenesis method is used (Ali and Steinkasserer, 1995). Briefly, in a primary PCR reaction the two fusion gene fragments are independently amplified using appropriate specific primers for the SPs (PCR product A) and the mature sequences (PCR product B), respectively. Approximately equal molar quantities of each PCR product A and B are phosphorylated and ligated. Finally, out of the possible ligation combinations, the desired fusion gene construct is specifically amplified from an aliquot of the ligation reaction by a secondary PCR using the 5′ sense primer of the SP and the 3′ antisense primer of the mature sequence. […]

[6] = target: T3, E-Selectin mutant molecule with SP from VCAM-1 (Homo sapiens, UniProt P16581); assay: as above; assay type: cell-based; settings: cell-free translation/translocation assay and transiently transfected HEK293 cells
T3 construct: VCAM-1 signal peptide (SP; VCAM1, P19320), replacing E-Selectin's own SP (N); expressed in transfected cells; host or cells: HEK293 (transient); also translated cell-free in reticulocyte lysate with microsomes
Protocol: as §1

[7] = target: T4, VCAM-1 mutant molecule containing the SP from E-Selectin (Homo sapiens, UniProt P19320); assay: as above; assay type: cell-based; settings: cell-free translation/translocation assay and transiently transfected HEK293 cells
T4 construct: E-Selectin signal peptide (SP; SELE, P16581), replacing VCAM-1's own SP (N); expressed in transfected cells; host or cells: HEK293 (transient); also translated cell-free in reticulocyte lysate with microsomes
Protocol: as §1

T2 sequence (P05362 28-532): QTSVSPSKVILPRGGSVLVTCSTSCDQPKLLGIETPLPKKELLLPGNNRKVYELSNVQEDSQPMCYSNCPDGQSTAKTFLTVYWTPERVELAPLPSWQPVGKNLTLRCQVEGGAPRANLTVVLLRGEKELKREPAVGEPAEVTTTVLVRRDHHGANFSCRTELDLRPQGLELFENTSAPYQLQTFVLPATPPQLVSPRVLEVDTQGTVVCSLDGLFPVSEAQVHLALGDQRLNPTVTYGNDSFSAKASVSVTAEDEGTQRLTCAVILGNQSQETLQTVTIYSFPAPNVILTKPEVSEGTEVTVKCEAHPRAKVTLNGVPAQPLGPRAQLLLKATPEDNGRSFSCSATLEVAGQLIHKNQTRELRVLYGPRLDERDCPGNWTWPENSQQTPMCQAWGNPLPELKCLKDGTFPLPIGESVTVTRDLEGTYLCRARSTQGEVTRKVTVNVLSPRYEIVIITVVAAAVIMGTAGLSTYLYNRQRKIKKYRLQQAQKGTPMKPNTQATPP

core-glycosylated and protease-protected form of VCAM-1 (translocation across microsomal membranes) [1]: inhibited by increasing concentrations
concentration needed to inhibit translocation of ICAM-1, relative to VCAM-1 [3]: 20 to 30 times
IC50 ([4]; transiently transfected HEK293 cells, 48 hours post-transfection, Western blot quantified against β-actin, read-out: concentration inhibiting 50% of VCAM-1 glycoprotein synthesis): < 5 nM
sensitivity of the chimeric construct to the compound [6]: partially sensitive
sensitivity of the chimeric construct to the compound [7]: resistant
Structure (SMILES): CCCCC(C)CC1NC(=O)C(Cc2cn(OC)c3ccccc23)N(C)C(=O)C(CC(C)C)NC(=O)C(CC(C)C)N(C)C(=O)C(CC(C)CCCC)NC(=O)C(CCC(=O)OCCC)OC(=O)C(C)N(C)C1=O (centres unmarked) [CP]
sensitivity of SEAP secretion to the compound [2]: compound-insensitive
VCAM-1 protein in transfected cells co-treated with lactacystin ([4]; cells transiently transfected with VCAM-1 cDNA, co-treatment with lactacystin 5 μM, band identified as full length, non-glycosylated VCAM-1): accumulation of a polypeptide moiety of lower molecular weight
sensitivity of the chimeric construct to the compound [5]: full sensitivity
